Source: the NIST ThermoML archive (doi:10.1021/je060271a)
Values joined by “and” are separate entries in the source; they are usually repeats but may differ in a detail not shown here. Identical values can stand only once. Numbers after ± are expanded uncertainties.

Conditions: Liquid, Vibrating tube method

CCCCCC(=O)OCC(COC(=O)CCCCC)(COC(=O)CCCCC)COC(=O)CCCCC [pentaerythritol tetrahexanoate]
mass density (283.16 K, 9726 kPa): 1009.7 ± 1.2 kg/m3
mass density (283.16 K, 9740.5 kPa): 1009.7 ± 1.2 kg/m3
mass density (283.16 K, 11666 kPa): 1010.8 ± 1.2 kg/m3
mass density (283.16 K, 11699 kPa): 1010.9 ± 1.2 kg/m3
mass density (283.16 K, 11719 kPa): 1011 ± 1.2 kg/m3
mass density (283.16 K, 11736 kPa): 1010.9 ± 1.2 kg/m3
mass density (283.16 K, 11882 kPa): 1011 ± 1.2 kg/m3
mass density (283.16 K, 15896 kPa): 1013.2 ± 1.2 kg/m3
mass density (283.16 K, 15917 kPa): 1013.2 ± 1.2 kg/m3
mass density (283.16 K, 15934 kPa): 1013.3 ± 1.2 kg/m3
mass density (283.16 K, 15952 kPa): 1013.2 ± 1.2 kg/m3
mass density (283.16 K, 15973 kPa): 1013.2 ± 1.2 kg/m3
mass density (283.16 K, 15990 kPa): 1013.1 ± 1.2 kg/m3
mass density (283.16 K, 16007 kPa): 1013.1 ± 1.2 kg/m3
mass density (283.16 K, 16028 kPa): 1013.2 ± 1.2 kg/m3
mass density (283.16 K, 16047 kPa): 1013.4 ± 1.2 kg/m3
mass density (283.16 K, 17073 kPa): 1013.9 ± 1.2 kg/m3
mass density (283.16 K, 17091 kPa): 1013.8 ± 1.2 kg/m3
mass density (283.16 K, 17101 kPa): 1013.8 ± 1.2 kg/m3
mass density (283.16 K, 17102 kPa): 1013.8 ± 1.2 kg/m3
mass density (283.16 K, 17103 kPa): 1013.9 ± 1.2 kg/m3
mass density (283.16 K, 21750 kPa): 1016.3 ± 1.2 kg/m3
mass density (283.16 K, 24165 kPa): 1017.6 ± 1.2 kg/m3
mass density (283.16 K, 24256 kPa): 1017.8 ± 1.2 kg/m3
mass density (283.16 K, 24293 kPa): 1017.8 ± 1.2 kg/m3
mass density (283.16 K, 24310 kPa): 1017.7 ± 1.2 kg/m3
mass density (283.16 K, 24348 kPa): 1017.7 ± 1.2 kg/m3
mass density (283.16 K, 26923 kPa): 1019 ± 1.2 kg/m3
mass density (283.16 K, 26937 kPa): 1019 ± 1.2 kg/m3
mass density (303.14 K, 14075 kPa): 997.2 ± 1.2 kg/m3
mass density (303.14 K, 21030 kPa): 1001.2 ± 1.2 kg/m3
mass density (303.14 K, 32666 kPa): 1007.6 ± 1.2 kg/m3
mass density (303.14 K, 32689 kPa): 1007.7 ± 1.2 kg/m3
mass density (303.14 K, 32708 kPa): 1007.8 ± 1.2 kg/m3
mass density (303.14 K, 32727 kPa): 1007.7 ± 1.2 kg/m3
mass density (303.14 K, 32750 kPa): 1007.8 ± 1.2 kg/m3
mass density (303.14 K, 32770 kPa): 1007.7 ± 1.2 kg/m3
mass density (303.14 K, 32789 kPa): 1007.7 ± 1.2 kg/m3
mass density (303.14 K, 34002 kPa): 1008.2 ± 1.2 kg/m3
mass density (303.14 K, 34004 kPa): 1008.4 ± 1.2 kg/m3
mass density (303.14 K, 34018 kPa): 1008.3 ± 1.2 kg/m3
mass density (303.14 K, 34022 kPa): 1008.4 ± 1.2 kg/m3
mass density (303.14 K, 34024 kPa): 1008.4 ± 1.2 kg/m3
mass density (303.14 K, 34030 kPa): 1008.3 ± 1.2 kg/m3
mass density (303.14 K, 34038 kPa): 1008.4 ± 1.2 kg/m3
mass density (303.14 K, 34043 kPa): 1008.4 ± 1.2 kg/m3
mass density (303.14 K, 34049 kPa): 1008.2 ± 1.2 kg/m3
mass density (303.14 K, 34053 kPa): 1008.4 ± 1.2 kg/m3
mass density (303.14 K, 34057 kPa): 1008.5 ± 1.2 kg/m3
mass density (303.14 K, 34060 kPa): 1008.3 ± 1.2 kg/m3
mass density (303.14 K, 34063 kPa): 1008.4 ± 1.2 kg/m3
mass density (303.14 K, 34084 kPa): 1008.5 ± 1.2 kg/m3
mass density (303.14 K, 34101 kPa): 1008.4 ± 1.2 kg/m3
mass density (303.14 K, 34115 kPa): 1008.4 ± 1.2 kg/m3
mass density (303.14 K, 34131 kPa): 1008.4 ± 1.2 kg/m3
mass density (303.14 K, 34147 kPa): 1008.4 ± 1.2 kg/m3
mass density (303.14 K, 34159 kPa): 1008.4 ± 1.2 kg/m3
mass density (303.14 K, 34165 kPa): 1008.6 ± 1.2 kg/m3
mass density (303.14 K, 34169 kPa): 1008.5 ± 1.2 kg/m3
mass density (303.14 K, 34174 kPa): 1008.4 ± 1.2 kg/m3
mass density (303.15 K, 191.8 kPa): 988.6 ± 1.2 kg/m3
mass density (303.15 K, 192.2 kPa): 988.4 ± 1.2 kg/m3
mass density (303.15 K, 192.4 kPa): 988.5 ± 1.2 kg/m3
mass density (303.15 K, 192.5 kPa): 988.3 ± 1.2 kg/m3
mass density (303.15 K, 192.7 kPa): 988.4 ± 1.2 kg/m3
mass density (303.15 K, 193.2 kPa): 988.5 ± 1.2 kg/m3
mass density (303.15 K, 193.4 kPa): 988.5 ± 1.2 kg/m3 and 988.4 ± 1.2 kg/m3
mass density (303.15 K, 193.6 kPa): 988.6 ± 1.2 kg/m3
mass density (303.15 K, 193.9 kPa): 988.5 ± 1.2 kg/m3
mass density (303.15 K, 194.8 kPa): 988.4 ± 1.2 kg/m3 and 988.5 ± 1.2 kg/m3
mass density (303.15 K, 195 kPa): 988.5 ± 1.2 kg/m3
mass density (303.15 K, 195.1 kPa): 988.5 ± 1.2 kg/m3
mass density (303.15 K, 195.8 kPa): 988.6 ± 1.2 kg/m3 and 988.4 ± 1.2 kg/m3
mass density (303.15 K, 196 kPa): 988.5 ± 1.2 kg/m3
mass density (303.15 K, 196.2 kPa): 988.3 ± 1.2 kg/m3
mass density (303.15 K, 196.3 kPa): 988.5 ± 1.2 kg/m3
mass density (303.15 K, 196.5 kPa): 988.5 ± 1.2 kg/m3 and 988.6 ± 1.2 kg/m3
mass density (303.15 K, 198.2 kPa): 988.4 ± 1.2 kg/m3 and 988.5 ± 1.2 kg/m3
mass density (303.15 K, 198.4 kPa): 988.4 ± 1.2 kg/m3
mass density (303.15 K, 198.8 kPa): 988.4 ± 1.2 kg/m3 and 988.5 ± 1.2 kg/m3
mass density (303.15 K, 198.9 kPa): 988.5 ± 1.2 kg/m3
mass density (303.15 K, 199.1 kPa): 988.5 ± 1.2 kg/m3
mass density (303.15 K, 199.3 kPa): 988.4 ± 1.2 kg/m3
mass density (303.15 K, 199.6 kPa): 988.5 ± 1.2 kg/m3 and 988.6 ± 1.2 kg/m3
mass density (303.15 K, 200.9 kPa): 988.4 ± 1.2 kg/m3
mass density (303.15 K, 202.8 kPa): 988.4 ± 1.2 kg/m3
mass density (303.15 K, 203.1 kPa): 988.5 ± 1.2 kg/m3
mass density (303.15 K, 203.3 kPa): 988.5 ± 1.2 kg/m3
mass density (303.15 K, 203.5 kPa): 988.4 ± 1.2 kg/m3
mass density (303.15 K, 203.8 kPa): 988.4 ± 1.2 kg/m3
mass density (303.15 K, 204 kPa): 988.5 ± 1.2 kg/m3
mass density (303.15 K, 204.5 kPa): 988.4 ± 1.2 kg/m3
mass density (303.15 K, 204.7 kPa): 988.4 ± 1.2 kg/m3
mass density (303.15 K, 204.9 kPa): 988.5 ± 1.2 kg/m3 and 988.6 ± 1.2 kg/m3
mass density (303.15 K, 205 kPa): 988.5 ± 1.2 kg/m3
mass density (303.15 K, 205.4 kPa): 988.5 ± 1.2 kg/m3 and 988.4 ± 1.2 kg/m3
mass density (303.15 K, 205.7 kPa): 988.5 ± 1.2 kg/m3 and 988.6 ± 1.2 kg/m3
mass density (303.15 K, 206.1 kPa): 988.5 ± 1.2 kg/m3
mass density (303.15 K, 206.2 kPa): 988.5 ± 1.2 kg/m3 and 988.4 ± 1.2 kg/m3
mass density (303.15 K, 206.4 kPa): 988.5 ± 1.2 kg/m3
mass density (303.15 K, 206.8 kPa): 988.4 ± 1.2 kg/m3
mass density (303.15 K, 206.9 kPa): 988.3 ± 1.2 kg/m3
mass density (303.15 K, 208.3 kPa): 988.4 ± 1.2 kg/m3
mass density (303.15 K, 208.7 kPa): 988.4 ± 1.2 kg/m3
mass density (303.15 K, 210.1 kPa): 988.5 ± 1.2 kg/m3 and 988.4 ± 1.2 kg/m3
mass density (303.15 K, 210.6 kPa): 988.5 ± 1.2 kg/m3
mass density (303.15 K, 210.9 kPa): 988.3 ± 1.2 kg/m3 and 988.4 ± 1.2 kg/m3
mass density (303.15 K, 211.1 kPa): 988.4 ± 1.2 kg/m3 and 988.5 ± 1.2 kg/m3 and 988.3 ± 1.2 kg/m3
mass density (303.15 K, 211.8 kPa): 988.5 ± 1.2 kg/m3 and 988.6 ± 1.2 kg/m3
mass density (303.15 K, 212 kPa): 988.5 ± 1.2 kg/m3
mass density (303.15 K, 212.3 kPa): 988.4 ± 1.2 kg/m3
mass density (303.15 K, 213.2 kPa): 988.4 ± 1.2 kg/m3
mass density (303.15 K, 213.6 kPa): 988.5 ± 1.2 kg/m3
mass density (303.15 K, 213.7 kPa): 988.6 ± 1.2 kg/m3
mass density (303.15 K, 214.1 kPa): 988.5 ± 1.2 kg/m3
mass density (303.15 K, 214.2 kPa): 988.5 ± 1.2 kg/m3
mass density (303.15 K, 214.4 kPa): 988.5 ± 1.2 kg/m3
mass density (303.15 K, 214.6 kPa): 988.6 ± 1.2 kg/m3
mass density (303.15 K, 214.8 kPa): 988.5 ± 1.2 kg/m3
mass density (303.15 K, 215.1 kPa): 988.4 ± 1.2 kg/m3
mass density (303.15 K, 215.5 kPa): 988.5 ± 1.2 kg/m3
mass density (303.15 K, 215.6 kPa): 988.4 ± 1.2 kg/m3 and 988.5 ± 1.2 kg/m3
mass density (303.15 K, 216 kPa): 988.5 ± 1.2 kg/m3
mass density (303.15 K, 216.2 kPa): 988.5 ± 1.2 kg/m3
mass density (303.15 K, 216.5 kPa): 988.5 ± 1.2 kg/m3
mass density (303.15 K, 216.7 kPa): 988.6 ± 1.2 kg/m3
mass density (303.15 K, 216.9 kPa): 988.5 ± 1.2 kg/m3
mass density (303.15 K, 217 kPa): 988.5 ± 1.2 kg/m3
mass density (303.15 K, 217.2 kPa): 988.4 ± 1.2 kg/m3
mass density (303.15 K, 217.7 kPa): 988.4 ± 1.2 kg/m3
mass density (303.15 K, 218.1 kPa): 988.5 ± 1.2 kg/m3
mass density (303.15 K, 218.2 kPa): 988.5 ± 1.2 kg/m3
mass density (303.15 K, 218.6 kPa): 988.5 ± 1.2 kg/m3
mass density (303.15 K, 219.1 kPa): 988.5 ± 1.2 kg/m3
mass density (303.15 K, 219.4 kPa): 988.6 ± 1.2 kg/m3
mass density (303.15 K, 219.6 kPa): 988.5 ± 1.2 kg/m3
mass density (303.15 K, 219.8 kPa): 988.4 ± 1.2 kg/m3
mass density (303.15 K, 220 kPa): 988.4 ± 1.2 kg/m3
mass density (303.15 K, 220.2 kPa): 988.4 ± 1.2 kg/m3
mass density (303.15 K, 220.3 kPa): 988.4 ± 1.2 kg/m3
mass density (303.15 K, 224.1 kPa): 988.4 ± 1.2 kg/m3
mass density (303.15 K, 224.8 kPa): 988.5 ± 1.2 kg/m3
mass density (303.15 K, 225.2 kPa): 988.4 ± 1.2 kg/m3
mass density (303.15 K, 225.4 kPa): 988.5 ± 1.2 kg/m3
mass density (303.15 K, 228.3 kPa): 988.6 ± 1.2 kg/m3
